In one test the target is Histamine H1 receptor (Homo sapiens, UniProt P35367). As to the kind of experiment: Binding affinity for human Histamine H1 receptor in CHO K1 cells. In kind it is cell-based.
Test [1] has as its target T1, Polyunsaturated fatty acid 5-lipoxygenase (Homo sapiens, UniProt P09917).
T1 sequence (P09917 whole entry): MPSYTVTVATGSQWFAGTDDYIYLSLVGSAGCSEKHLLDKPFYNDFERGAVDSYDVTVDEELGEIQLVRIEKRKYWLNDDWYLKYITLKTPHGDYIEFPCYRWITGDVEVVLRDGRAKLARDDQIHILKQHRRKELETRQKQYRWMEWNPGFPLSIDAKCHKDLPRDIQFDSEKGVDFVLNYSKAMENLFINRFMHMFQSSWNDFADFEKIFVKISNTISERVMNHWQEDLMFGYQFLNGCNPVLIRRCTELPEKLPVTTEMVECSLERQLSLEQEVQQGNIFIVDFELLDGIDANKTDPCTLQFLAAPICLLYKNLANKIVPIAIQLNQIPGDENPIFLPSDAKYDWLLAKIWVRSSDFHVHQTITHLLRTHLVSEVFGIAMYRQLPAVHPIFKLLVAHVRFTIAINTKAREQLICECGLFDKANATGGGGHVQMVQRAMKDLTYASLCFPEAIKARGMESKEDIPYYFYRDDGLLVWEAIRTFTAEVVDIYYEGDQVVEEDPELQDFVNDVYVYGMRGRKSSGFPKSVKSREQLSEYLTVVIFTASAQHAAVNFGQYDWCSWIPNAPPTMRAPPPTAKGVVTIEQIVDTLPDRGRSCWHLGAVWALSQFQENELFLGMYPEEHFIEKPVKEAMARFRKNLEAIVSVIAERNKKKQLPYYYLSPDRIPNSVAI
As to the kind of experiment: Inhibitory concentration against human 5-lipoxygenase.

Test [2] concerns the target T1, Polyunsaturated fatty acid 5-lipoxygenase. Kind of test: Inhibitory concentration against 5-lipoxygenase in human whole blood. The test is classed as functional, tissue-based.

Usually Ki stands for the dissociation constant of the complex between target and ligand, obtained from inhibition or displacement. Read a high Ki as lower affinity. As usually defined, the IC50 is the concentration that inhibits the measured activity by half.

Sequence of Histamine H1 receptor (P35367 whole entry): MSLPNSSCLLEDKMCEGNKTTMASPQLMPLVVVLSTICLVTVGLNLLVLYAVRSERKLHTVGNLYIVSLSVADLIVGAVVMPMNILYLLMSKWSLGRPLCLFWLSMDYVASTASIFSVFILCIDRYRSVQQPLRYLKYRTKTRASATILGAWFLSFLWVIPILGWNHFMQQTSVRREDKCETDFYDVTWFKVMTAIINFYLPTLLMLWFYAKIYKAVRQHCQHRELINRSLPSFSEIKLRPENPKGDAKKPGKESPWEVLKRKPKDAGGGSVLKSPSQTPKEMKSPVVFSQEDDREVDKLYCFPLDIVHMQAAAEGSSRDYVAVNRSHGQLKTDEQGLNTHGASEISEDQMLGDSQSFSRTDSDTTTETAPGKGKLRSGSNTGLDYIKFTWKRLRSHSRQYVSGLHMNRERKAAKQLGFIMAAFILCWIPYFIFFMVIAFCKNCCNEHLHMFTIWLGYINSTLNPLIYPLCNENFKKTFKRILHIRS

On Histamine H1 receptor, `CCOC(=O)N(O)CCC#Cc1ccc(OCCCCN2CCN(C(c3ccc(F)cc3)c3ccc(F)cc3)CC2)cc1` came in with a Ki of 5.89 nM. For the same compound, the IC50 in test [1] is 365 nM; in test [2] it was 72 nM.

Consider `CC(C)OC(=O)N(O)CCC#Cc1ccc(OCCCCN2CCN(C(c3ccc(F)cc3)c3ccc(F)cc3)CC2)cc1`, for which the affinity at Histamine H1 receptor corresponds to a Ki of 9.55 nM. The IC50 was 335 nM in test [1] and 102 nM in test [2].

Compound `CC(C)COC(=O)N(O)CCC#Cc1ccc(OCCCCN2CCN(C(c3ccc(F)cc3)c3ccc(F)cc3)CC2)cc1` came in with a Ki at Histamine H1 receptor of 7.59 nM. Moreover, the IC50 was determined as 420 nM in test [1] and 176 nM in test [2].

Compound `O=C(OCc1ccccc1)N(O)CCC#Cc1ccc(OCCCCN2CCN(C(c3ccc(F)cc3)c3ccc(F)cc3)CC2)cc1` yielded a Ki on Histamine H1 receptor of 17.8 nM. Besides, the figures for the 50% inhibitory concentration (IC50) in test [1] and in test [2] were 350 nM and 150 nM, respectively.

For `COC(=O)N(O)CCC#Cc1ccc(OCCCCN2CCN(C(c3ccc(F)cc3)c3ccc(F)cc3)CC2)cc1`, on Histamine H1 receptor, affinity was put at a Ki of 5.01 nM. Also, the IC50 in test [1] was 170 nM; in test [2], 90 nM.

Take `NC(=O)N(O)CCC#Cc1ccc(OCCCCN2CCN(C(c3ccc(F)cc3)c3ccc(F)cc3)CC2)cc1`: in test [1], the half-inhibitory concentration (IC50) worked out at 193 nM.

The values above are taken from ChEMBL document CHEMBL1141893, “5-Lipoxygenase inhibition by N-hydroxycarbamates in dual-function compounds” (Bioorg Med Chem Lett, 2005).
